How the values were obtained:
human CYP11B1 = molecular target: T1, human CYP11B1 (Homo sapiens, UniProt P15538); assay: G-402 cellular enzyme assay, human CYP11B1 (cortisol release, HTRF); format: cell-based; details: G-402 cells, 1 μM Deoxycortisol
T1 construct: expressed in transfected cells
T1 sequence (P15538 25-503): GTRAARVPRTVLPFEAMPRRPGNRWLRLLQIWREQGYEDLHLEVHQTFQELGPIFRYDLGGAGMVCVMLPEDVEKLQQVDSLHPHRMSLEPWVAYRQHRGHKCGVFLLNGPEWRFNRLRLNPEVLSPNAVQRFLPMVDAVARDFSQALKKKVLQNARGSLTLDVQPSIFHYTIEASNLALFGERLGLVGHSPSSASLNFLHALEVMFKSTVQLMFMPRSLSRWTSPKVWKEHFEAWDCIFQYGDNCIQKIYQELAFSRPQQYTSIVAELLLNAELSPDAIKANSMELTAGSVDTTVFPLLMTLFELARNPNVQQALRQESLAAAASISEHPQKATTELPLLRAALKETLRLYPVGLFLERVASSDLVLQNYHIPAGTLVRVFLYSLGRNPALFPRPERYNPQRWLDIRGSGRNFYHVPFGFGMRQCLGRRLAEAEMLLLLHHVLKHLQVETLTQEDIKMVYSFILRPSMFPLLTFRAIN
Outline: (§1)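 Supernatant steroid product measured by HTRF (aldosterone for CYP11B2, cortisol for CYP11B1) after 16 h exposure of stably transfected G-402 cells to compound. Substrates were 1 μM deoxycorticosterone and 1 μM deoxycortisol, respectively; EC50 derived from a four-parameter MMF curve fit.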

human CYP11B2 = molecular target: T2, human CYP11B2 (Homo sapiens, UniProt P19099); assay: G-402 cellular enzyme assay, human CYP11B2 (aldosterone release, HTRF); format: cell-based; details: G-402 cells, 1 μM Deoxycorticosterone
T2 construct: expressed in transfected cells
T2 sequence (P19099 25-503): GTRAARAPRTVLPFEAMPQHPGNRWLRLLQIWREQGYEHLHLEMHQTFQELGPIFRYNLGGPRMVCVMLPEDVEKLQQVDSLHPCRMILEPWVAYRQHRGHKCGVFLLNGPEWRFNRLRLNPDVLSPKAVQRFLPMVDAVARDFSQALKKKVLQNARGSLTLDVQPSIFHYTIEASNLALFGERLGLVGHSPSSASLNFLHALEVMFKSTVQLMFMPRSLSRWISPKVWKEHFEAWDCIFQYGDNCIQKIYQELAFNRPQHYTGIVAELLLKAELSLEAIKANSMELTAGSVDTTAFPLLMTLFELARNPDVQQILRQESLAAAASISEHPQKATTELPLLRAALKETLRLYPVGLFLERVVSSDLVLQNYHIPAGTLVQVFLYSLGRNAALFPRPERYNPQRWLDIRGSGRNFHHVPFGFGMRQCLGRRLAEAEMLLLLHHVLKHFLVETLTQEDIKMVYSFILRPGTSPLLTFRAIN
Outline: as §1

Compound	EC50 (human CYP11B1)	EC50 (human CYP11B2)
CCOc1ccc2c(n1)C(C)(C)N(c1cncc(F)c1)C2=O [Example 299, 2-Ethoxy-6-(5-fluoro-pyridin-3-yl)-7,7-dimethyl-6,7-dihydro-pyrrolo[3,4-b]pyridin-5-one]	48500 nM	787 nM
COc1ccc2c(n1)C(C)(C)N(c1cccnc1)C2=O [Example 300, 2-Methoxy-7,7-dimethyl-6-pyridin-3-yl-6,7-dihydro-pyrrolo[3,4-b]pyridin-5-one]	14300 nM	216 nM
O=C1c2ccc(Cl)cc2C(C2CC2)N1c1cccnc1 (stereo not drawn) [Example 301, 5-Chloro-3-cyclopropyl-2-pyridin-3-yl-2,3-dihydro-isoindol-1-one]	32500 nM	161 nM
O=C1c2ccc(Cl)cc2C(C2CC2)N1c1cncc(OC(F)F)c1 (stereo not drawn) [Example 302, 5-Chloro-3-cyclopropyl-2-(5-difluoromethoxy-pyridin-3-yl)-2,3-dihydro-isoindol-1-one]	5190 nM	93.2 nM
CCOc1ccc2c(n1)C(C)(C)N(c1cncc(OC(F)F)c1)C2=O [Example 303, 6-(5-Difluoromethoxy-pyridin-3-yl)-2-ethoxy-7,7-dimethyl-6,7-dihydro-pyrrolo[3,4-b]pyridin-5-one]	12600 nM	93.6 nM
CC(C)Oc1cncc(N2C(=O)c3ccc(Cl)cc3C2(C)C)c1 [Example 304, 5-Chloro-2-(5-isopropoxy-pyridin-3-yl)-3,3-dimethyl-2,3-dihydro-isoindol-1-one]	78.1 nM	2.4 nM
O=C1c2ccc(Cl)cc2C2(CC2)N1c1cnccc1Cl [Example 305, 6′-Chloro-2′-(4-chloropyridin-3-yl)spiro[cyclopropane-1,1′-isoindol]-3′(2′H)-one]	860 nM	5.4 nM
CC1(C)c2cc(Cl)ccc2C(=O)N1c1cncc(OC2CC2)c1 [Example 306, 5-Chloro-2-(5-cyclopropoxy-pyridin-3-yl)-3,3-dimethyl-2,3-dihydro-isoindol-1-one]	114 nM	5.8 nM
NC1CCCc2c1cncc2N1Cc2cc(Cl)ccc2C1=O (stereo not drawn) [Example 311, 2-(8-Amino-5,6,7,8-tetrahydro-isoquinolin-4-yl)-5-chloro-2,3-dihydro-isoindol-1-one]	6480 nM	813 nM
O=C1c2ccc(Cl)cc2CN1c1cncc2c1CCC[C@@H]2O [Example 340, 5-Chloro-2-((S)-8-hydroxy-5,6,7,8-tetrahydro-isoquinolin-4-yl)-2,3-dihydro-isoindol-1-one]	14200 nM	88.3 nM
O=C1c2ccc(Cl)cc2CN1c1cncc2c1CCC[C@H]2O [Example 341, 5-Chloro-2-((R)-8-hydroxy-5,6,7,8-tetrahydro-isoquinolin-4-yl)-2,3-dihydro-isoindol-1-one]	1680 nM	32.1 nM
CC1(C)c2cc(Cl)ccc2C(=O)N1c1cncc(Cn2cccn2)c1 [Example 379, 5-Chloro-3,3-dimethyl-2-(5-pyrazol-1-ylmethyl-pyridin-3-yl)-2,3-dihydro-isoindol-1-one]	370 nM	25.8 nM
CC1(C)c2cc(Cl)ccc2C(=O)N1c1cncc(Cn2ccc(N)n2)c1 [Example 380, 2-[5-(3-Amino-pyrazol-1-ylmethyl)-pyridin-3-yl]-5-chloro-3,3-dimethyl-2,3-dihydro-isoindol-1-one]	2420 nM	36.6 nM
CC1(C)c2cc(Cl)ccc2C(=O)N1c1cncc(CNc2cc[nH]n2)c1 [Example 381, 5-Chloro-3,3-dimethyl-2-{5-[(1H-pyrazol-3-ylamino)-methyl]-pyridin-3-yl}-2,3-dihydro-isoindol-1-one]	138 nM	3.4 nM
Nc1ccn(Cc2cncc(N3CCc4cc(Cl)ccc4C3=O)c2)n1 [Example 382, 2-[5-(3-Amino-pyrazol-1-ylmethyl)-pyridin-3-yl]-6-chloro-3,4-dihydro-2H-isoquinolin-1-one]	1520 nM	33.9 nM
